Measurements reported in article PMC8379219 (Nature Communications, 2021).

How the values were obtained:
SERT Q332A = SERT Q332A (Homo sapiens, UniProt P31645, Q332A); test: [3H]5-HT transport, COS-7 cells, S2 mutant Q332A; assay type: cell-based
Procedure: (§1) All determinations were performed in triplicate.

SERT F335A = SERT F335A (Homo sapiens, UniProt P31645, F335A); test: [3H]5-HT transport, COS-7 cells, S2 mutant F335A; assay type: cell-based
Procedure: as §1

SERT = settings: cited from earlier work
SERT WT = SERT WT (Homo sapiens, UniProt P31645); test: [3H]IMI dissociation rate assay (allosteric potency), COS-7 membranes; assay type: binding; parameters: expressed in transfected cells; host or cells: COS-7;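 further: radioligand pre-bound 30 min at room temperature to equilibrium, then dissociation followed over 5–70 min, ended by filtration through GF/B filters, at least three independent experiments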

For NCCc1c[nH]c2ccc(O)cc12 [5-HT, 5-[1,2-^3H]hydroxytryptamine], the “5-HT VMAX” value (SERT Q332A) was 1151 ± 64 pmol/min/10^5 cells and the “5-HT VMAX” value (SERT F335A) was 2368 ± 394 pmol/min/10^5 cells.
In the case of CN(C)CCCN1c2ccccc2CCc2ccccc21 [IMI, Imipramine], the “Allosteric properties at SERT” value (SERT; ref Plenge et al 1990 Eur J Pharmacol) is given as “very weak allosteric properties” and the “Slope for [3H]IMI dissociation” value (SERT WT) is given as 0.528 ± 0.012 min⁻¹.
In the case of NC(=O)c1ccc2c(c1)CO[C@@]2(CCCN1CCC(c2ccc3ccc(=O)[nH]c3c2)CC1)c1ccc(F)cc1 [Lu AF60097], the Allosteric potency (SERT; [3H]IMI bound to S1) is given as ~ 30 nM.
